Key:
[1] = Inhibition of HIV1 His6-tagged integrase-FLAG-tagged LEDGF/p75 (unknown origin) interaction after 1 hr by AlphaScreen assay
[2] = system: Human immunodeficiency virus 1; test: Antiviral activity against HIV1 infected in human MT2 cells assessed as protection from viral replication; format: functional, organism-based; details: Human immunodeficiency virus 1, MT2

EC50 [2] | SMILES | IC50 [1]
 | O=C(O)/C(O)=C/C(=O)c1c[nH]c2cccc(O)c12 | 35 µM
> 100 µM | COc1ccc(Cc2nnc(Nc3ccc(C)cc3)o2)cc1OC | 
 | O=C(O)/C(O)=C/C(=O)c1cn(Cc2ccc(F)cc2)c2ccccc12 | 100 µM

Source: ChEMBL document CHEMBL2417456, “Hit identification and optimization in virtual screening: practical recommendations based on a critical literature analysis” (J Med Chem, 2013)
